Reference: US7282518B2, “Benzimidazole compounds for modulating IgE and inhibiting cellular proliferation” (Avanir Pharmaceuticals, priority 2001, dated 2007)

Tests used:
Splenic B cells = assay: Spleen cell / splenic B cell proliferation, 3H-thymidine incorporation; format: cell-based, mouse
Method: (§1) Spleen cell cultures were established from naive BALB/c mice and incubated for 4 days in the presence of stimulus and drug. Cultures were pulsed for 4 hours with 3H-thymidine and harvested. A variety of experiments were performed in an effort to determine the effect of the benzimidazole compounds on cellular proliferation. These experiments ultimately measured ^3H-thymidine incorporation into proliferating cell DNA. The specific procedure varied with the cells and the stimuli. Cells derived from mouse spleen were cultured at 3 million per ml; cell lines were seeded at 0.1 to 1 million per ml. Splenic B cells were isolated by T cell depletion and stimulated with phorbol myristate acetate (PMA) (10 ng/ml) plus ionomycin (100 nM), or IL-4 (10 ng/ml) plus anti-CD40 Ab (100 ng/ml). T cells were depleted prior to culture by incubating spleen cells first with a cocktail of anti-Thyl ascites (10%), anti-CD4 Ab (0.5 μg/ml) and anti-CD8 Ab (0.5 μg/ml), followed by guinea pig complement (adsorbed). Cell lines were unstimulated or stimulated with Human Epidermal Growth Factor (EGF) (100 ng/ml). All cells were cultured in 96-well plates for 2–3 days and pulsed for 6 to 14 hours with 50 μl of 3H-thymidine (50 μCi/ml).

IgE responses = assay: In vitro IgE responses to IL-4/anti-CD40 Ab; format: cell-based
cytokine release = assay: ConA-stimulated cytokine release; format: cell-based
[1] = test system: murine M12.4.1 lymphoma cells; assay: M12.4.1 lymphoma cell proliferation, 3H-thymidine incorporation; format: cell-based
Method: as §1, with “A” for “Spleen cell cultures were established from naive BALB/c mice and incubated for 4 days in the presence of stimulus and drug. Cultures were pulsed for 4 hours with 3H-thymidine and harvested. A”, “μCi/ml). In tumor cells, the results with splenic lymphocytes led to a further analysis of cellular proliferation by measuring the growth of tumor cells in the presence of these drugs. The initial analysis was performed with murine M12.4.1 lymphoma cells, either un-stimulated or stimulated with IL-4/anti-CD40 Ab. […]” for “μCi/ml).”

[2] = test system: tumor lines derived from a variety of tissues; assay: Proliferation of a battery of tumor lines from a variety of tissues; format: cell-based, mostly human; conditions: in vitro
Method: as §1, with “A” for “Spleen cell cultures were established from naive BALB/c mice and incubated for 4 days in the presence of stimulus and drug. Cultures were pulsed for 4 hours with 3H-thymidine and harvested. A”, “μCi/ml). A similar approach was used to establish selectivity of the anti-proliferative activity by testing a battery of tumor lines derived from a variety of tissues, mostly human in origin. An attempt was made to generate proliferation data from at least 2 cell lines from each tissue selected. […]” for “μCi/ml).”

[3] = test system: EGF-responsive cell lines; assay: Proliferation of EGF-responsive (ER-negative/EGFR-positive) breast cancer cell lines; format: cell-based; conditions: in vitro
Method: as §1, with “A” for “Spleen cell cultures were established from naive BALB/c mice and incubated for 4 days in the presence of stimulus and drug. Cultures were pulsed for 4 hours with 3H-thymidine and harvested. A”, “μCi/ml). A similar approach was used to establish selectivity of the anti-proliferative activity by testing a battery of tumor lines derived from a variety of tissues, mostly human in origin. An attempt was made to generate proliferation data from at least 2 cell lines from each tissue selected. […]” for “μCi/ml).”

ER-positive cell lines = assay: Proliferation of ER-positive breast cancer cell lines; format: cell-based; conditions: in vitro
Method: as §1, with “A” for “Spleen cell cultures were established from naive BALB/c mice and incubated for 4 days in the presence of stimulus and drug. Cultures were pulsed for 4 hours with 3H-thymidine and harvested. A”, “μCi/ml). A similar approach was used to establish selectivity of the anti-proliferative activity by testing a battery of tumor lines derived from a variety of tissues, mostly human in origin. An attempt was made to generate proliferation data from at least 2 cell lines from each tissue selected. […]” for “μCi/ml).”

Which results are given for `O=C(Nc1ccccn1)c1ccc2[nH]c(-c3ccc(NC(=O)C45C[C@H]6C[C@@H](C4)C[C@@H](C5)C6)cc3)nc2c1` [Compound I.82]?
anti-proliferative activity to T and B lymphocytes exposed to a variety of immunogenic stimuli (Splenic B cells; in vitro): highly potent; spleen cell proliferation responses (FIG. 1) (Splenic B cells; naive BALB/c mice, 4 days with stimulus and drug, 4 hours 3H-thymidine pulse): suppression of spleen cell proliferation responses; B cell proliferation response to IL-4/anti-CD40 Ab (Splenic B cells; spleen cells, IL-4 (10 ng/ml) plus anti-CD40 Ab (100 ng/ml)): suppressed; B cell proliferation response to PMA/ionomycin (Splenic B cells; spleen cells, PMA (10 ng/ml) plus ionomycin (100 nM)): suppressed; in vitro IgE responses to IL-4/anti-CD40 Ab (IgE responses): suppressed in vitro IgE responses; ConA-stimulated cytokine release (cytokine release): inhibition; proliferation of M12.4.1 cells, potency ([1]; cultured with IL-4/anti-CD40 Ab): increased; proliferation of M12.4.1 cells ([1]; un-stimulated): suppressed the proliferation of M12.4.1 cells but with lower potency; sensitivity of tumor cell lines (proliferation) [2]: a number of tumor cell lines are sensitive; proliferation of all EGF-responsive cell lines [3]: potently inhibited; number of ER-positive cell lines potently inhibited (ER-positive cell lines): 2 of the 5
